The values that follow come from PubChem BioAssay (NCI).

Each structure is given as a SMILES string.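 Cells were grown in 96-well plates and exposed to each compound for 48 hours at five concentrations; endpoints were interpolated linearly between bracketing concentrations, or set to the highest concentration if not reached. The concentration for full growth arrest is given as TGI.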

Some test systems named below: 786-0 renal; HCT-15 colon; HOP-62 NSCLC; K-562 leukemia; MOLT-4 leukemia; OVCAR-4 ovarian; OVCAR-8 ovarian; SF-539 CNS; SK-OV-3 ovarian; UO-31 renal.
Experiment in all cases: inhibition of tumour cell growth, NCI panel, 48 h

Turning to `CC(=O)OC1[C@@H](OC(C)=O)CN(OCc2ccccc2)C[C@H]1OC(C)=O` (stereo partly drawn), the TGI in the test with 786-0 renal, in the test on HCT-15 colon, in the test on HOP-62 NSCLC, in the test with K-562 leukemia, with MOLT-4 leukemia and in the test with OVCAR-4 ovarian was above 100 µM each time. In addition, the TGI in the test on OVCAR-8 ovarian was above 100 µM; in the test with SF-539 CNS, above 100 µM; in the test on SK-OV-3 ovarian, 76.4 µM; with UO-31 renal it was above 100 µM.

On to `COc1ccc(-c2cc(-c3ccccc3)nc3c2CC(=O)Nc2ccccc2-3)cc1OC`, for which the TGI in the test on 786-0 renal is above 100 µM; in the test on HCT-15 colon, above 100 µM; in the test with HOP-62 NSCLC, 18.2 µM; in the test with K-562 leukemia, above 100 µM; in the test on MOLT-4 leukemia it was above 100 µM; in the test with OVCAR-4 ovarian it was above 100 µM. Moreover, the TGI was 0.447 µM with OVCAR-8 ovarian, above 46.1 µM in the test on SF-539 CNS, above 92.6 µM with SK-OV-3 ovarian and above 100 µM in the test with UO-31 renal.

On to `COC(=O)c1ccc(C)cc1CC1Cc2c(C)cccc2C1=O` (stereo not drawn), for which the TGI in the test with 786-0 renal was 34.8 µM; in the test with HCT-15 colon, 12.7 µM; in the test on HOP-62 NSCLC, above 53.4 µM; with K-562 leukemia, above 34.4 µM; with MOLT-4 leukemia, above 47.2 µM; in the test on OVCAR-4 ovarian, above 91.9 µM. For the same molecule, the TGI was above 68.8 µM with OVCAR-8 ovarian, 22.3 µM in the test on SF-539 CNS, 43.2 µM with SK-OV-3 ovarian and 66.4 µM in the test with UO-31 renal.

Take `COCn1c(C)c(C)c2c(=O)oc(C)nc21`: the TGI in the test on 786-0 renal, in the test on HCT-15 colon, in the test with HOP-62 NSCLC, in the test with K-562 leukemia, in the test with MOLT-4 leukemia and with OVCAR-4 ovarian was above 100 µM throughout. Moreover, the TGI in the test with OVCAR-8 ovarian, in the test with SF-539 CNS, in the test with SK-OV-3 ovarian and with UO-31 renal was above 100 µM throughout.

Take `COc1cc2cc3c4c(cc(OC)c(OC)c4c2cc1OC)CCN3C(=O)CCC(=O)O`: the TGI with 786-0 renal, in the test with HOP-62 NSCLC, in the test with K-562 leukemia, in the test on MOLT-4 leukemia, with OVCAR-4 ovarian and with SF-539 CNS was above 100 µM each time. Further, the TGI in the test with SK-OV-3 ovarian and in the test with UO-31 renal was above 100 µM throughout.

`C=CCN1C[C@@H](C)N([C@@H](c2ccc(C(=O)N(CC)CC)cc2)c2cccc(OC)c2)C[C@@H]1C`: the TGI in the test on 786-0 renal, with HCT-15 colon, with HOP-62 NSCLC, in the test on K-562 leukemia, in the test with MOLT-4 leukemia and with OVCAR-4 ovarian was above 100 µM throughout. The TGI with OVCAR-8 ovarian, in the test on SF-539 CNS, in the test on SK-OV-3 ovarian and with UO-31 renal was above 100 µM each time.

Consider `Cc1c(-c2ccc(O)c(O)c2)oc(=O)c2c(O)cccc12`, for which the TGI with 786-0 renal is 23.4 µM; in the test on HCT-15 colon, 17.7 µM; in the test on HOP-62 NSCLC it was 34.5 µM; with K-562 leukemia it was 28.1 µM; with MOLT-4 leukemia, above 100 µM; in the test with OVCAR-4 ovarian it was 40.4 µM. In addition, the TGI in the test on OVCAR-8 ovarian was above 100 µM; in the test with SF-539 CNS, 48.4 µM; in the test with SK-OV-3 ovarian, 40.9 µM; in the test on UO-31 renal, 24.4 µM.

Turning to `Cc1ccc([N+](=O)[O-])cc1S(=O)(=O)Nc1ccc(C2=NN(S(=O)(=O)c3cc([N+](=O)[O-])ccc3C)C(c3ccco3)C2)cc1` (stereo not drawn), the TGI with 786-0 renal, with HCT-15 colon, in the test with HOP-62 NSCLC, in the test with K-562 leukemia, with MOLT-4 leukemia and in the test with OVCAR-4 ovarian was above 100 µM in each case. The TGI with OVCAR-8 ovarian, with SF-539 CNS, in the test on SK-OV-3 ovarian and in the test with UO-31 renal was above 100 µM in each case.

On to `C[N+](C)(C)C(C1=CCCC1=O)c1ccccc1` (stereo not drawn), for which the TGI with 786-0 renal was 39.9 µM; in the test with HCT-15 colon it was 41.5 µM; with HOP-62 NSCLC it was 80.2 µM; in the test with K-562 leukemia, above 100 µM; in the test with MOLT-4 leukemia it was 58.3 µM; in the test with OVCAR-4 ovarian it was above 100 µM. The TGI is 65.6 µM in the test on OVCAR-8 ovarian, above 100 µM in the test on SF-539 CNS, above 100 µM in the test on SK-OV-3 ovarian and above 100 µM in the test with UO-31 renal.

Turning to `Nc1ccc(OCCCc2c(-c3ccccc3)nc(N)[nH]c2=O)cc1`, the TGI in the test with 786-0 renal, in the test on HCT-15 colon, in the test with HOP-62 NSCLC, with K-562 leukemia, with MOLT-4 leukemia and with OVCAR-4 ovarian was above 100 µM in each case. The TGI in the test on OVCAR-8 ovarian, in the test on SF-539 CNS, in the test with SK-OV-3 ovarian and in the test with UO-31 renal was above 100 µM throughout.

On to `CCN(CC)CC(=O)Nc1ccc2c(c1)C(=O)c1ccc(NC(=O)CN(CC)CC)cc1C2=O`, for which the TGI with 786-0 renal was 47.2 µM; in the test with HCT-15 colon, above 100 µM; in the test with HOP-62 NSCLC, 74.1 µM; in the test on K-562 leukemia, 67.8 µM; in the test on MOLT-4 leukemia, 81.5 µM; with OVCAR-4 ovarian, above 100 µM. Further, the TGI is 94.9 µM with OVCAR-8 ovarian, 30.9 µM with SF-539 CNS, 88 µM in the test with SK-OV-3 ovarian and above 100 µM with UO-31 renal.

Regarding `CC(=O)C1=C(C)N(c2ccccc2)C2(O)C=CC(=O)C3=C(O)c4ccccc4C(=O)C312` (stereo not drawn), the TGI is above 100 µM in the test on 786-0 renal; above 100 µM with HCT-15 colon; 72.1 µM in the test with HOP-62 NSCLC; above 100 µM in the test with K-562 leukemia; above 100 µM with MOLT-4 leukemia; 72.1 µM in the test on OVCAR-4 ovarian. In addition, the TGI in the test with OVCAR-8 ovarian is 34.3 µM; in the test with SF-539 CNS, 46.7 µM; with SK-OV-3 ovarian it was above 100 µM; with UO-31 renal, 33.7 µM.

On to `COc1ccc(-c2nc3c(nc2-c2ccc(OC)cc2)N(C)S(=O)(=O)N=C3N)cc1`, for which the TGI with 786-0 renal was 50.1 µM; in the test with HCT-15 colon it was above 100 µM; with HOP-62 NSCLC it was above 100 µM; in the test with K-562 leukemia it was above 100 µM; in the test on MOLT-4 leukemia it was 48.5 µM; in the test with OVCAR-4 ovarian it was 79.2 µM. Further, the TGI in the test on OVCAR-8 ovarian is above 100 µM; in the test with SF-539 CNS, 51.5 µM; in the test on SK-OV-3 ovarian, 88.8 µM; in the test on UO-31 renal, 53.2 µM.
